Patent US12692254B2, “Benzimidazole inhibitors of PAD enzymes” (BRISTOL-MYERS SQUIBB COMPANY, priority 2018, dated 2026)

Biological target: human PAD4 (hPAD4) (Homo sapiens, UniProt Q9UM07)
Assay: RFMS human PAD4 functional assay (rapid-fire mass spectrum)
Format: biochemical
Conditions: 5 nM hPAD4 enzyme, 250 μM BAEE, 50 μM Calcium; 30 min preincubation, 90 min reaction at 37° C.
Outline: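 PAD4 (10 nM) preincubated 30 min with compound (top final 50 μM), then BAEE substrate added in pH 7.5 HEPES buffer with DTT, 50 μM calcium, TPEN; 90 min at 37° C. After TCA quench, citrulline derivatized with phenyl glyoxal (4 mM final, 30 min, 37° C) and quantified by RapidFire MS against internal standard.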

Chain of human PAD4 (hPAD4) (Q9UM07 whole entry): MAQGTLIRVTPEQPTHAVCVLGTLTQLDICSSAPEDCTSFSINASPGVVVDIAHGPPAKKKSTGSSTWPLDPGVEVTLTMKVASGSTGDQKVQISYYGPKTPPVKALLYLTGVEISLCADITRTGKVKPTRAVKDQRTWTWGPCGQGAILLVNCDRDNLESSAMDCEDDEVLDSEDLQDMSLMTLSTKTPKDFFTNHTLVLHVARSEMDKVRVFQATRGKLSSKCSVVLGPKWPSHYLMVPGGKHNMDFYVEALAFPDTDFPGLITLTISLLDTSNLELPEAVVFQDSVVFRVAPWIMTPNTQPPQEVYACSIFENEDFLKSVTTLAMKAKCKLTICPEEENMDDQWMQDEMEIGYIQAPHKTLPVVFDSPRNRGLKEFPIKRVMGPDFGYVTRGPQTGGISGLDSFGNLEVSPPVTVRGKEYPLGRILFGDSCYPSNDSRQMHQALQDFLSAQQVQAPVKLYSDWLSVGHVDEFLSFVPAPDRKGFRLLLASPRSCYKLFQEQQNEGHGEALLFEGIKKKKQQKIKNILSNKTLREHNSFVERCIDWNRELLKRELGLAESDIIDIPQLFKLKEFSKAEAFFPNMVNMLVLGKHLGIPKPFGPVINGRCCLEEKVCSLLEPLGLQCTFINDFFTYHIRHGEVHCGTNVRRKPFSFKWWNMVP

Row | SMILES | IC50 [nM]
1 | COc1cc(C(=O)N2CC3CCC2[C@@H]3N)cc2nc(-c3cc4cccnc4n3CC3CC3)n(Cc3cnn(-c4ccccn4)c3)c12 (stereo partly drawn) [Example 400, (7R)-2-{2-[1-(cyclopropylmethyl)-1H-pyrrolo[2,3-b]pyridin-2-yl]-7-methoxy-1-{[1-(pyridin-2-yl)-1H-pyrazol-4-yl]methyl}-1H-1,3-benzodiazole-5-carbonyl)-2-azabicyclo[2.2.1]heptan-7-amine] | 57
2 | COc1cncc(-n2cc(Cn3c(-c4cc5ccccc5n4CC4CC4)nc4cc(C(=O)N5CC6CCC5[C@@H]6N)cc(OC)c43)cn2)c1 (stereo partly drawn) [Example 349, (7R)-2-{2-[1-(cyclopropylmethyl)-1H-indol-2-yl]-7-methoxy-1-{[1-(5-methoxypyridin-3-yl)-1H-pyrazol-4-yl]methyl}-1H-1,3-benzodiazole-5-carbonyl)-2-azabicyclo[2.2.1]heptan-7-amine] | 15
3 | COc1cc(C(=O)N2CC3CCC2[C@@H]3N)cc2nc(-c3cc4cccnc4n3CC3CC3)n([C@H]3C[C@@H](NC(C)=O)C3)c12 (stereo partly drawn) [Example 304, N-[(1s,3s)-3-{5-[(1R,4R,7R)-7-ammo-2-azabicyclo[2.2.1]heptane-2-carbonyl]-2-[1-(cyclopropylmethyl)-1H-pyrrolo[2,3-b]pyridin-2-yl]-7-methoxy-1H-1,3-benzodiazol-1-yl}cyclobutyl]acetamide] | 2880
4 | COc1cc(C(=O)N2C[C@H](N)C[C@@H](F)C2)cc2nc(-c3cc4cccnc4n3CC3CC3)n(Cc3cn[nH]c3)c12 [Example 500, (3R,5R)-1-{2-[1-(cyclopropylmethyl)-1H-pyrrolo[2,3-b]pyridin-2-yl]-7-methoxy-1-[(1H-pyrazol-4-yl)methyl]-1H-1,3-benzodiazole-5-carbonyl}-5-fluoropiperidin-3-amine] | 127
5 | COc1cc(C(=O)N2CC3CCC2C3N)cc2nc(-c3cc4cccnc4n3CC3CC3)n(CC3CCN(C(=O)c4ccc(C#N)cc4)C3)c12 [Example 201, 4-[(3S)-3-({5-[(1R,4R,7R)-7-amino-2-azabicyc1o[2.2.1]heptane-2-carbonyl]-2-[1-(cyclopropylmethyl)-1H-pyrrolo[2,3-b]pyridin-2-yl]-7-methoxy-1H-1,3-benzodiazol-1-yl}methyl)pyrrolidine-1-carbonyl]benzonitrile] | 18
6 | COc1cc(C(=O)N2C[C@H]3CC[C@@H]2[C@@H]3N)cc2nc(-c3cc4cccnc4n3CC3CC3)n(C[C@H]3CCN(c4nccnc4C#N)C3)c12 [Example 202, 3-[(3S)-3-({5-[(1R,4R,7R)-7-amino-2-azabicyclo[2.2.1]heptane-2-carbonyl]-2-[1-(cyclopropylmethyl)-1H-pyrrolo[2,3-b]pyridin-2-yl]-7-methoxy-1H-1,3-benzodiazol-1-yl}methyl)pyrrolidin-1-yl]pyrazine-2-carbonitrile] | 21
7 | COc1cc(C(=O)N2CC3CCC2[C@@H]3N)cc2nc(-c3cc4cccnc4n3CC3CC3)n(CC3CCN(C(=O)c4ccnc(C#N)c4)CC3)c12 (stereo partly drawn) [Example 200, 4-[4-({5-[(1R,4R,7R)-7-amino-2-azabicyclo[2.2.1]heptane-2-(cyclopropylmethyl)-1H-pyrrolo[2,3-b]pyridin-2-yl]-7-methoxy-1H-1,3-benzodiazol-1-yl}methyl)piperidine-1-carbonyl]pyridine-2-carbonitrile] | 198
8 | COc1ccccc1C(=O)N1CC(Cn2c(-c3cc4ccccc4n3CC3CC3)nc3cc(C(=O)N4C[C@H]5CC[C@@H]4[C@@H]5N)cc(OC)c32)C1 [Example 168, (1R,4R,7R)-2-{2-[1-(cyclopropylmethyl)-1H-indol-2-yl]-7-methoxy-1-{[1-(2-methoxybenzoyl)azetidin-3-yl]methyl}-1H-1,3-benzodiazol-5-carbonyl}-2-azabicyclo[2.2.1]heptan-7-amine] | 33
9 | COc1cc(C(=O)N2C[C@H]3CC[C@@H]2[C@@H]3N)cc2nc(-c3cc4ccccc4n3CC3CC3)n(CC3CN(C(=O)C4CCCC4)C3)c12 [Example 144, (1R,4R,7R)-2-{1-[(1-cyclopentanecarbonylazetidin-3-yl)methyl]-2-[1-(cyclopropylmethyl)-1H-indol-2-yl]-7-methoxy-1H-1,3-benzodiazole-5-carbonyl}-2-azabicyclo[2.2.1]heptan-7-amine] | 17

Results, then the molecule that gave them:

Row | IC50 [nM] | SMILES
10 | 409 | COc1cc(C(=O)N2CC3CCC2[C@@H]3N)cc2nc(-c3cc4ccccc4n3CC3CC3)n(Cc3cnnn3C)c12 (stereo partly drawn) [Example 514, (7R)-2-{2-[1-(cyclopropylmethyl)-1H-indol-2-yl]-7-methoxy-1-[(1-methyl-1H-1,2,3-triazol-5-yl)methyl]-1H-1,3-benzodiazole-5-carbonyl}-2-azabicyclo[2.2.1]heptan-7-amine]
11 | 23 | COc1cc(C(=O)N2C[C@H]3CC[C@@H]2[C@@H]3N)cc2nc(-c3cc4cccnc4n3CC3CC3)n(C[C@H]3CCN(c4cncc(C#N)n4)C3)c12 [Example 203, 6-[(3S)-3-({5-[(1R,4R,7R)-7-amino-2-azabicyclo[2.2.1]heptane-2-carbonyl]-2-[1-(cyclopropylmethyl)-1H-pyrrolo[2,3-b]pyridin-2-yl]-7-methoxy-1H-1,3-benzodiazol-1-yl}methyl)pyrrolidin-1-yl]pyrazine-2-carbonitrile]
12 | 22 | COc1ccc(-n2cc(Cn3c(-c4cc5ccccc5n4CC4CC4)nc4cc(C(=O)N5CC6CCC5[C@@H]6N)cc(OC)c43)cn2)cn1 (stereo partly drawn) [Example 354, (7R)-2-{2-[1-(cyclopropylmethyl)-1H-indol-2-yl]-7-methoxy-1-{[1-(6-methoxypyridin-3-yl)-1H pyrazol-4-yl]methyl}-1H-1,3-benzodiazole-5-carbonyl}-2-azabicyclo[2.2.1]heptan-7-amine]
13 | 12 | N#Cc1ccc(C(=O)N2CC(Cn3c(-c4cc5ccccc5n4CC4CC4)nc4cc(C(=O)N5C[C@H]6CC[C@@H]5[C@@H]6N)cc(F)c43)C2)cc1 [Example 92, 4-(3-((5-((1R,4R,7R)-7-amino-2-azabicyclo[2.2.1]heptane-2-carbonyl)-2-(1-(cyclopropylmethyl)-1H-indol-2-yl)-7-fluoro-1H-benzo[d]imidazol-1-yl)methyl)azetidine-1-carbonyl)benzonitrile]
14 | 125 | COc1cc(C(=O)N2CC3CCC2[C@@H]3N)cc2nc(-c3cc4cccnc4n3CC3CC3)n(Cc3ccn(C)n3)c12 (stereo partly drawn) [Example 499, (7R)-2-{2-[1-(cyclopropylmethyl)-1H-pyrrolo[2,3-b]pyridin-2-yl]-7-methoxy-1-[(1-methyl-1H-pyrazol-3-yl)methyl]-1H-1,3-benzodiazole-5-carbonyl}-2-azabicyclo[2.2.1]heptan-7-amine]
15 | 41 | COc1cc(C(=O)N2CC3CCC2[C@@H]3N)cc2nc(-c3cc4ccccc4n3CC3CC3)n(CC3CN(C(=O)c4ccc(C#N)nc4)C3)c12 (stereo partly drawn) [Example 415, 5-[3-({5-[(7R)-7-amino-2-azabicyclo[2.2.1]heptane-2-carbonyl]-2-{1-(cyclopropylmethyl)-1H-indol-2-yl]-7-methoxy-1H-1,3-benzodiazol-1-yl}methyl)azetidine-1-carbonyl]pyridine-2-carbonitrile]
16 | 23 | COc1cc(C(=O)N2CC3CCC2[C@@H]3N)cc2nc(-c3cc4cccnc4n3CC3CC3)n(Cc3cnn(-c4cccc(C(F)(F)F)n4)c3)c12 (stereo partly drawn) [Example 356, (7R)-2-{2-[1-(cyclopropylmethyl)-1H-pyrrolo[2,3-b]pyridin-2-yl]-7-methoxy-1-({1-[6-(trifluoromethyl)pyridin-2-yl]-1H-pyrazol-4-yl}methyl)-1H-1,3-benzodiazole-5-carbonyl)-2-azabicyclo[2.2.1]heptan-7-amine]
17 | 34 | COc1cc(C(=O)N2CC3CCC2[C@@H]3N)cc2nc(-c3cc4cccnc4n3CC3CC3)n(Cc3cnn(-c4cnccn4)c3)c12 (stereo partly drawn) [Example 373, (7R)-2-{2-[1-(cyclopropylmethyl)-1H-pyrrolo[2,3-b]pyridin-2-yl]-7-methoxy-1-{[1-(pyrazin-2-yl)-1H-pyrazol-4-yl]methyl}-1H-1,3-benzodiazole-5-carbonyl}-2-azabicyclo[2.2.1]heptan-7-amine]
18 | 11 | COc1cc(C(=O)N2C[C@H]3CC[C@@H]2[C@@H]3N)cc2nc(-c3cc4ccccc4n3CC3CC3)n(CC3CN(C(=O)c4ccncc4)C3)c12 [Example 138, (1R,4R,7R)-2-{2-[1-(cyclopropylmethyl)-1H-indol-2-yl]-7-methoxy-1-{[1-(pyridine-4-carbonyl)azetidin-3-yl]methyl}-1H-1,3-benzodiazole-5-carbonyl}-2-azabicyclo[2.2.1]heptan-7-amine]
19 | 42 | COc1cc(C(=O)N2CC3CCC2[C@@H]3N)cc2nc(-c3cc4ccccc4n3CC3CC3)n(Cc3cnn(-c4ccc(C(F)F)nc4)c3)c12 (stereo partly drawn) [Example 387, (7R)-2-{2-[1-(cyclopropylmethyl)-1H-indol-2-yl]-1-({1-[6-(difluoromethyl)pyridin-3-yl]-1H-pyrazol-4-yl}methyl)-7-methoxy-1H-1,3-benzodiazole-5-carbonyl}-2-azabicyclo[2.2.1]heptan-7-amine]
20 | 119 | COc1cc(C(=O)N2C[C@H]3CC[C@@H]2[C@@H]3N)cc2nc(-c3cc4cccnc4n3CC3CC3)n(CC3CN(c4nccs4)C3)c12 [Example 47, (1R,4R,7R)-2-{2-[1-(cyclopropylmethyl)-1H-pyrrolo[2,3-b]pyridin-2-yl]-7-methoxy-1-{[1-(1,3-thiazol-2-yl)azetidin-3-yl]methyl}-1H-1,3-benzodiazole-5-carbonyl}-2-azabicyclo[2.2.1]heptan-7-amine]
21 | 38 | COc1cc(C(=O)N2CC(Cn3c(-c4cc5cccnc5n4CC4CC4)nc4cc(C(=O)N5CC6CCC5[C@@H]6N)cc(OC)c43)C2)ccn1 (stereo partly drawn) [Example 441, (7R)-2-{2-[1-(cyclopropylmethyl)-1H-pyrrolo[2,3-b]pyridin-2-yl]-7-methoxy-1-{[1-(2-methoxypyridine-4-carbonyl)azetidin-3-yl]methyl}-1H-1,3-benzodiazole-5-carbonyl}-2-azabicyclo[2.2.1]heptan-7-amine]
